# In patent publication US20250000910A1, “Methods of Improving Therapeutic Efficacy of Mesenchymal Stromal Cells for Treatment of Osteoarthritis” (Georgia Tech Research Corporation, priority 2021, published 2025):
# Entries after “also recorded” stand apart in the source; their conditions may differ.
# Tests used:
# Assay type in all cases: cell-based, human
# [1] = system: more therapeutic hMSCs (donors M1 and M2); experiment: Cytokine secretion of more therapeutic hMSCs after pharmacological intervention (Luminex 41 Plex, PLSDA); conditions: for overall paracrine (cytokine) signaling response / secretion of therapeutic related cytokines (GM-CSF, GRO, IL-4, PDGF-AA): donors M1 and M2, +IL-1β 24 hr, vs CTRL
# Procedure: (§1) Loaded samples (2.03 μL) were determined to be within the linear range of detection of the […] Millipore Corporation) system. Cytokines were quantified using a bead based multiplex immunoassay, Luminex Cytokine/Chemokine 41 Plex Immunomodulatory Kit ([…] Millipore Corporation). […] PLSDA was performed in MATLAB (Mathworks) using a function written by Cleiton Nunes (Mathworks File Exchange). This approach accounts for the multivariate nature of the data without overfitting. Prior to inputting the data into the algorithm, all data was z-scored [(observed-mean)/SD]. Intracellular signaling phospho-proteins and cytokine media read outs were used as the independent variables and the different hMSC donor's treatment conditions were used as the outcome variables. LVs in a multidimensional space (dimensionality varied by number of independent input variables) were defined and the two primary LVs were used for orthogonal rotation to best separate groups in the new plane defined by LV1 and LV2 (FIGS. 5a-5c). • Statistical Analysis
# p-Akt = experiment: hMSC intracellular signaling analysis, Akt/mTOR phosphoprotein 11-plex
# Source text: Millipore Corporation) system.
# [2] = system: less therapeutic hMSCs (donors L1 and L2); experiment: Cytokine secretion of less therapeutic hMSCs after pharmacological intervention (Luminex 41 Plex, PLSDA); conditions: vs CTRL
# Procedure: as §1
Compound,overall paracrine (cytokine) signaling response [1],"secretion of therapeutic related cytokines (GM-CSF, GRO, IL-4, PDGF-AA) [1]",other results
Cc1cc(N2CCOCC2)cc2[nH]c(-c3c(NC[C@@H](O)c4cccc(Cl)c4)cc[nH]c3=O)nc12 [BMS-536924],reduced overall paracrine signaling response,no effect,–
NC1(c2ccc(-c3nc4ccn5c(=O)[nH]nc5c4cc3-c3ccccc3)cc2)CCC1 [MK-2206],–,–,"p-Akt phospho-protein levels relative to CTRL (p-Akt; less therapeutic hMSC donor L2, combination Metformin and MK-2206, +IL-1β): significantly (p<0.01) less p-Akt phospho-protein levels; also recorded: decreased p-Akt signaling; secretion of therapeutic related cytokines (GM-CSF, GRO, IL-4, PDGF-AA) ([2]; donors L1 and L2, +IL-1β 24 hr): no effect; secretion of nonspecific cytokines ([2]; donors L1 and L2, +IL-1β): distinct reductions in nonspecific cytokines"
CO[C@H]1C[C@@H]2CC[C@@H](C)[C@@](O)(O2)C(=O)C(=O)N2CCCC[C@H]2C(=O)O[C@H]([C@H](C)C[C@@H]2CC[C@@H](O)[C@H](OC)C2)CC(=O)[C@H](C)/C=C(\C)[C@@H](O)[C@@H](OC)C(=O)[C@H](C)C[C@H](C)/C=C/C=C/C=C/1C [Rapamycin],–,no effect,–
C[S+]([O-])c1ccc(-c2nc(-c3ccncc3)c(-c3ccc(F)cc3)[nH]2)cc1 (stereo not drawn) [SB203580],–,reduced cytokine secretion of the therapeutic related cytokines,–
CCOC(=O)C1=C(N)Oc2ccc(Cl)cc2C1C(C#N)C(=O)OCC (stereo not drawn) [SC79],the greatest potentiation of paracrine signaling,no effect,"p-Akt phospho-protein levels relative to CTRL (p-Akt; more therapeutic hMSC donor M2, combination SP600125 and SC79, +IL-1β): significantly (p<0.001) more p-Akt phospho-protein levels; also recorded: increased p-Akt signaling; secretion of nonspecific cytokines ([1]; donors M1 and M2, +IL-1β): potentiated secretion of nonspecific cytokines; shift of paracrine signaling profile (PLSDA) ([1]; donors M1 and M2, +IL-1β): clear qualitative shift in the paracrine signaling profiles"
